From article PMC9837764 (Nature Communications, 2023)
Where “and” joins values, the source holds several entries; their conditions need not be identical. Equal entries are not always repeated. Where two headings read alike, the source gives them in different places.

What was measured:
[1] = test system: Salmonella typhimurium TA 102; test: Ames test, strain TA 102; conditions: Positive Control 5 µg/plate
[2] = molecular target: SARS-CoV-2 RNA polymerase, nsp12, 7, and 8 (Severe acute respiratory syndrome coronavirus 2, UniProt P0DTD1); test: SARS-CoV-2 RNA polymerase inhibition assay (pyrophosphate luminescence); format: biochemical
[3] = test system: SARS-CoV-2; test: Combination of RdRp inhibitors with SARS-CoV-2 nsp14 inhibitors in infected Calu-3 cells, synergy; format: cell-based; parameters: EC99 mean: unit not given here; conditions: for EC50: Severe acute respiratory syndrome coronavirus 2, Calu-3, read-out: EC50 mean; for EC90: Severe acute respiratory syndrome coronavirus 2, Calu-3, read-out: EC90 mean; for EC99 mean: Calu-3 cells, alone or with nsp14 inhibitor at the concentration of the label, unit not given
[4] = test system: SARS-CoV-2; test: Genomic and subgenomic viral RNA in infected Calu-3 cells (RT-PCR); format: cell-based
[5] = test system: IL-6; test: IL-6 in supernatant of SARS-CoV-2-infected human primary monocytes; format: cell-based
Protocol: (§1) Human primary monocytes were obtained after 3 h of plastic adherence of peripheral blood mononuclear cells (PBMCs). The use of primary human cell was approved by Institutional Review Board from the Oswaldo Cruz Foundation under protocol 49971421.8.0000.5248 with signed informed consent in accordance with the Hemotherapy Service of Hospital Clementino Fraga from the Federal University of Rio de Janeiro. All volunteers were de-identified. PBMCs were isolated from healthy donors by density gradient centrifugation (Ficoll-Paque, GE Healthcare). PBMCs (2.0 × 10^6 cells) were plated onto 48-well plates (NalgeNunc) in RPMI-1640 without serum for 2–4 h. Nonadherent cells were removed, and the remaining monocytes were maintained in DMEM with 5% human serum (HS; Millipore) and penicillin/streptomycin. The purity of human monocytes was above 95%, as determined by flow cytometric analysis (FACScan; Becton Dickinson) using anti-CD3 (BD Biosciences, cat # 555342, 1:40), anti-CD16 (Southern Biotech, cat # 561313, 1:20) and APC mouse IgG2a isotype (BD Biosciences, cat # 550882, 1/40) and PE mouse IgG1 isotype (BD Biosciences, 555749, 1/20).

[6] = test system: SARS-CoV-2; test: Cell-associated virus RNA in SARS-CoV-2-infected human primary monocytes; format: cell-based
Protocol: as §1
Total viral RNA from a culture supernatant and/or monolayers was extracted using QIAamp Viral RNA (Qiagen®) according to the manufacturer’s instructions. Quantitative RT‒PCR was performed using GoTaq® Probe qPCR and RT-qPCR Systems (Promega) in a StepOne™ Real-Time PCR System (Thermo Fisher Scientific) ABI PRISM 7500 Sequence Detection System (Applied Biosystems). Amplifications were carried out in 25 µL reaction mixtures containing 2× reaction mix buffer, […] of each primer, 10 µM of probe, and 5 µL of RNA template. Primers, probes, and cycling conditions recommended by the Centers for Disease Control and Prevention (CDC) protocol were used to detect SARS-CoV-2[52]. The standard curve method was employed for virus quantification. For reference to the cell amounts used, the housekeeping gene RNAse P (F-5′-[…] -3′, R-5′[…] -3′, P-5′-FAM-[…] -BHQ-1-3′) was amplified. The Ct values for this target were compared to those obtained for different cell amounts, 10^7 to 10^2, for calibration.

[7] = test system: SARS-CoV-2; test: Yield-reduction assay, SARS-CoV-2 in Calu-3 cells (titers as PFU/mL in Vero cells)
[8] = test system: TNF-α; test: TNF-α in supernatant of SARS-CoV-2-infected human primary monocytes; format: cell-based
Protocol: as §1

[9] = Calu-3, 10 µM, 48 h, listed as RDV
[10] = infected monocytes, drugs at 10 µM, 24 h, listed as RDV
[11] = infected Calu-3, compound alone at 10 uM

For `Nc1ccc2cc3ccccc3cc2c1` [2-AA, 2-aminoanthracene, reference compound], the “Mutagenicity TA 102 +S9” value [1] was “+”.

With `O=P(O)(O)OP(=O)(O)OP(=O)(O)OC[C@H]1O[C@@H](n2cnc3c(NCc4ccco4)ncnc32)[C@H](O)[C@@H]1O` [801-TP, Kinetin ribose 5’-triphosphate] the IC50 [2] was 100 ± 3 nM, the “IC50 fold higher than that of GS-443902” value [2] was 3 fold and the “SARS-CoV-2 RNA polymerase inhibition (Fig2A source data, replicates)” value (“SARS-CoV-2 RNA polymerase inhibition” below) ([2]; Drug Concentration 0.001) was 4 and 6 and 8. For the same molecule, the “SARS-CoV-2 RNA polymerase inhibition” value ([2]; Drug Concentration 0.01) was 4 and 5 (2×), the “SARS-CoV-2 RNA polymerase inhibition” value ([2]; Drug Concentration 0.1) was 53 and 50 and 55 and the “SARS-CoV-2 RNA polymerase inhibition” value ([2]; Drug Concentration 1) was 60 and 47 and 52. The “SARS-CoV-2 RNA polymerase inhibition” value ([2]; Drug Concentration 10) was 70 and 75 and 51.

In the case of `COC(=O)N[C@H](C(=O)N1CCC[C@H]1c1nc(-c2ccc(-c3ccc(-c4c[nH]c([C@@H]5CCCN5C(=O)[C@@H](NC(=O)OC)C(C)C)n4)cc3)cc2)c[nH]1)C(C)C` [Daclatasvir, daclatasvir], the EC50 [3] is reported as 700 nM and the EC90 [3] is reported as 3800 nM.

In the case of `NC(=O)c1nc(F)c[nH]c1=O` [Favipiravir, favipiravir], the EC50 [3] is reported as 7800 nM.

For `N#C[C@@]1(c2ccc3c(N)ncnn23)O[C@H](COP(=O)(O)OP(=O)(O)OP(=O)(O)O)[C@@H](O)[C@H]1O` [GS-443902], the “SARS-CoV-2 RNA polymerase inhibition” value ([2]; Drug Concentration 0.001) was 3 (2×) and 5, the “SARS-CoV-2 RNA polymerase inhibition” value ([2]; Drug Concentration 0.01) was 6 and 40 and 5 and the “SARS-CoV-2 RNA polymerase inhibition” value ([2]; Drug Concentration 0.1) was 65 and 63 and 80. For the same molecule, the “SARS-CoV-2 RNA polymerase inhibition” value ([2]; Drug Concentration 1) was 90 (2×) and 53 and the “SARS-CoV-2 RNA polymerase inhibition” value ([2]; Drug Concentration 10) was 99 and 90 and 75.

`CC(C)OC(=O)[C@H](C)NP(=O)(OC[C@H]1O[C@@H](n2cnc3c(NCc4ccco4)ncnc32)[C@H](O)[C@@H]1O)Oc1ccccc1` (stereo partly drawn) [MB-711, Phenyl (Isopropoxy-L-alaninyl) Kinetin Riboside Phosphoramidate] was tested, and the “Genomic viral RNA (Fig2B source data, replicates)” value [4] was 0.3 and 0.45 and 0.2, the “Subgenomic viral RNA (Fig2B source data, replicates)” value [4] was 0.6 and 0.8 and 0.5 and the “Virus productive titers (Fig3A source data, replicates)” value [3] was 46000 and 30000 and 28000. For the same molecule, the “Virus productive titers (Fig3B source data, replicates)” value [3] was 46000 and 30000 and 45000, the “IL-6 levels in the culture supernatant (Fig1E source data, per donor)” value [5] was 2.2 and 1.8 and 0.121 and 4.3 and 3.4 and 5.0 and 1.5 and 2.9 and the “Cell-associated virus RNA levels in SARS-CoV-2-infected monocytes” value [6] was “reduced cell-associated virus RNA levels in a concentration-dependent manner”. For the same molecule, the “Cell-associated virus RNA loads, inhibition (Fig1C source data, per donor)” value [6] was 2 (2×) and 0 and 32 and 30 and 35 and 40 and 45 and 50, the “Inhibition of SARS-CoV-2 infectious titers (Fig1A source data, replicates)” value (“Inhibition … (Fig1A source data, replicates)” for short) [7] was 20 and 7 and 28 and 24 and 64 and 23 and 25 and 50 and 33 and 60 and 57 and 42 and 79 (2×) and 81 and the “Inhibition of SARS-CoV-2 infectious titers (Fig1B source data, replicates)” value (“Inhibition … (Fig1B source data, replicates)” below) [7] was 16 (2×) and 20 and 43 and 73 and 50 and 55 and 71 and 77 (2×) and 80 and 75 and 99 and 97 and 95. The “TNF-α levels in the culture supernatant (Fig1D source data, per donor)” value [8] was 1.6 and 1.8 and 0.638 and 2.6 and 5.0 and 4.1.

In the case of `c1coc(CNc2ncnc3c2ncn3C2CCCCO2)c1` (stereo not shown) [MB-906, 6-furfurylamino-9-(tetrahydropyran-2-yl)−9H-purine], the “Antiviral activity, SARS-CoV-2 replication” value ([7]; huh-7 and calu-3 cells (Supplementary Fig. 2)) is reported as “impaired”.

With `COC(=O)N[C@H](C(=O)N1CCC[C@H]1C(=O)Nc1ccc([C@@H]2CC[C@@H](c3ccc(NC(=O)[C@@H]4CCCN4C(=O)[C@@H](NC(=O)OC)C(C)C)cc3)N2c2ccc(C(C)(C)C)cc2)cc1)C(C)C` [Ombitasvir, ombitasvir] the EC99 mean [3] was 18, the EC50 [3] was 400 nM and the EC90 [3] was 3300 nM.

`COC(=O)N[C@H](C(=O)N1CCC[C@H]1c1nc2cc([C@H]3CC[C@H](c4cc5nc([C@@H]6CCCN6C(=O)[C@@H](NC(=O)OC)[C@@H](C)OC)[nH]c5cc4F)N3c3cc(F)c(N4CCC(c5ccc(F)cc5)CC4)c(F)c3)c(F)cc2[nH]1)[C@@H](C)OC` [Pibrentasvir, pibrentasvir] showed an EC99 mean [3] of 19, an EC50 [3] of 700 nM and an EC90 [3] of 4200 nM.

`Cc1nnc(C(=O)NC(C)(C)c2nc(C(=O)NCc3ccc(F)cc3)c(O)c(=O)n2C)o1` [RTG, raltegravir] was tested, and the EC50 [3] was 4800 nM, the “Effects on SARS-CoV-2 replication” value ([3]; alone at 5 µM, Calu-3) was “marginal effects” and the “Virus productive titers (Fig3A source data, replicates)” value ([3]; infected Calu-3, RTG alone at 5uM) was 224000 and 448000.

In the case of `CCC(CC)COC(=O)[C@H](C)N[P@](=O)(OC[C@H]1O[C@@](C#N)(c2ccc3c(N)ncnn23)[C@H](O)[C@@H]1O)Oc1ccccc1` [Remdesivir, remdesivir, reference compound], the “Genomic viral RNA (Fig2B source data, replicates)” value [4, 9] is reported as 0.221 and 0.22 and 0.2, the “Subgenomic viral RNA (Fig2B source data, replicates)” value [4, 9] is reported as 0.07 and 0.05 and 0.09 and the EC99 mean [3] is reported as 1.1. The EC50 [3] was 90 nM, the EC90 [3] was 400 nM and the “IL-6 levels in the culture supernatant (Fig1E source data, per donor)” value [5, 10] was 2.2 and 1.5 and 3.0 and 4.2 and 2.9 and 1.1. The “Cell-associated virus RNA levels in SARS-CoV-2-infected monocytes” value ([6]; Fig. 1c) was “reduced cell-associated virus RNA levels in a concentration-dependent manner”, the EC50 ([7]; Severe acute respiratory syndrome coronavirus 2, Calu-3) was 150 ± 30 nM and the EC50 ([7]; Severe acute respiratory syndrome coronavirus 2, Calu-3, 24 h) was 10 ± 3 nM. For the same molecule, the “Inhibition … (Fig1B source data, replicates)” value ([7]; additional treatment at 24 h, Drug 0.001, Calu-3, 48 h, listed as RDV) was 28 and 35 and 32, the “Inhibition … (Fig1B source data, replicates)” value ([7]; additional treatment at 24 h, Drug 0.01, listed as RDV) was 40 and 60 and 50 and the “Inhibition … (Fig1B source data, replicates)” value ([7]; additional treatment at 24 h, Drug 0.1, listed as RDV) was 80 and 70 and 60. For the same molecule, the “Inhibition … (Fig1B source data, replicates)” value ([7]; additional treatment at 24 h, Drug 1) was 100, the “Inhibition … (Fig1B source data, replicates)” value ([7]; additional treatment at 24 h, Drug 10) was 100 and the “Inhibition … (Fig1A source data, replicates)” value ([7]; one treatment, Drug 0.001, Calu-3, MOI 0.1, 48 h, listed as RDV) was 12 and 16 and 10. The “Inhibition … (Fig1A source data, replicates)” value ([7]; one treatment, Drug 0.01, listed as RDV) was 30 and 50 and 55, the “Inhibition … (Fig1A source data, replicates)” value ([7]; one treatment, Drug 0.1, listed as RDV) was 45 and 50 and 72 and the “Inhibition … (Fig1A source data, replicates)” value ([7]; one treatment, Drug 1) was 100. For the same molecule, the “Inhibition … (Fig1A source data, replicates)” value ([7]; one treatment, Drug 10) was 100 and the “TNF-α levels in the culture supernatant (Fig1D source data, per donor)” value [8, 10] was 1.6 and 1.4 and 0.437 and 0.351 and 5.3 and 4.9 and 4.3 and 6.2.

In the case of `CC(C)OC(=O)[C@H](C)N[P@](=O)(OC[C@H]1O[C@@H](n2ccc(=O)[nH]c2=O)[C@](C)(F)[C@@H]1O)Oc1ccccc1` [Sofosbuvir, sofosbuvir], the “Virus productive titers (Fig3A source data, replicates)” value [3, 11] is reported as 64000 and 24000 and 240000 and the “Virus productive titers (Fig3B source data, replicates)” value [3, 11] is reported as 64000 and 24000 and 240000.

For `C[C@H](Cn1cnc2c(N)ncnc21)OCP(=O)(O)O` [Tenofovir, tenofovir], the EC50 [3] was 4300 nM, the “Virus productive titers (Fig3A source data, replicates)” value [3, 11] was 80000 and 88000 and 5000 and the “Virus productive titers (Fig3B source data, replicates)” value [3, 11] was 80000 and 88000 and 5000.
